IC50 data for 67 compounds are collected here from ChEMBL document CHEMBL5604063, “ASAP - DENV-2 NS2B-NS3 protease fluorescence dose response” (2024).

One may read the IC50 as the concentration that gives 50% inhibition.

“And” between values parts separate entries of the source, which are not always exact repeats. Equal entries are not always repeated. Some results are limits rather than exact numbers.

For assay [1], the target named is T1, Genome polyprotein (dengue virus type 2, UniProt P29990). The class given is functional, Thailand/16681/1984.
T1 sequence (P29990 1346-1475 limits assumed): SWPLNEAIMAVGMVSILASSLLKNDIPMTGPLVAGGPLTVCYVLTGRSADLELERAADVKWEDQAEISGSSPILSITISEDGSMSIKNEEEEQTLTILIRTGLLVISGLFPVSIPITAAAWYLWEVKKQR
T1 sequence (P29990 1476-2093 limits assumed): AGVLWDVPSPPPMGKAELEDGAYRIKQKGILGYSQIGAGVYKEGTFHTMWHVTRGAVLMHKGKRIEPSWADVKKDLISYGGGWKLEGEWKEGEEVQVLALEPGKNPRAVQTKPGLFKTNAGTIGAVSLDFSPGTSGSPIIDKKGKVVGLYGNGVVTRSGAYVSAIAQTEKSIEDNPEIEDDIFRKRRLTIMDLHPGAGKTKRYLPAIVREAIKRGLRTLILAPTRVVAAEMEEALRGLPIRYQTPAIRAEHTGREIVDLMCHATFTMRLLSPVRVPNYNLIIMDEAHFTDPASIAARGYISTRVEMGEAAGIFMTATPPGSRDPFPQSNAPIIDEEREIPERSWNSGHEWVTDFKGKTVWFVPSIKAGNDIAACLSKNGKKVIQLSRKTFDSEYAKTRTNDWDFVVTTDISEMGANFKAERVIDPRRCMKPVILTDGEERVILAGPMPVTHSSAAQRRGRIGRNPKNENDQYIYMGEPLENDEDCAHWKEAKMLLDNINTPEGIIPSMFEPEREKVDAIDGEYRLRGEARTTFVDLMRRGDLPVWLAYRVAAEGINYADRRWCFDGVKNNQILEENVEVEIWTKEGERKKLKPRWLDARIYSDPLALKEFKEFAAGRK
Assay [2] concerns the target T1, Genome polyprotein. The class given is functional, Thailand/16681/1984. This is another data set of the same source.

`CN(C)CCOc1ccc(Cl)cc1C(=O)Nc1cccc(CN)c1`: the IC50 is > 100 µM in assay [1] and > 99.5 µM in assay [2].

`Cc1c(C(=O)Nc2cccc(-c3nc(C4CC4)no3)c2)cc(C2CC2)n1C`: the IC50 is > 100 µM in assay [1] and > 99.5 µM in assay [2].

Turning to `CC(C)(C)Cn1c(=O)[nH]c2cccc(C(=O)Nc3cccc(CN)c3)c21`, the IC50 in assay [1] was > 100 µM; in assay [2], > 99.5 µM.

With `Cn1ccnc1C(=O)N1CCC([C@H](NC(=O)OCc2ccccc2)C(=O)Nc2cccc(CN)c2)CC1`, the figures for the IC50 in assay [1] and in assay [2] were > 100 µM and > 99.5 µM, respectively.

Consider `CCCN1C(=O)[C@](Nc2ccc3c(c2)CNC3)(C(N)=O)c2cc(Cl)ccc21`, for which the IC50 is > 100 µM in assay [1] and > 99.5 µM in assay [2].

For the compound `NCc1cccc(NC(=O)c2cc(Cl)cc(OC3CC3)c2)c1`, the IC50 in assay [1] is > 100 µM; in assay [2] it was > 99.5 µM.

`NCc1cccc(CS(=O)(=O)c2cc(Cl)cc(NC(=O)OCc3ccccc3)c2)c1`: the IC50 is > 100 µM in assay [1] and > 99.5 µM in assay [2].

Take `NCc1cccc(CNC(=O)[C@H]2[C@H]3CCCCC[C@H]3[C@H]2NC(=O)OCc2ccccc2)c1`: the IC50 in assay [1] was 80.3 µM; in assay [2], 14.4 µM and 63.2 µM and 44.4 µM.

Take `NC[C@H]1C[C@@H](CNC(=O)c2cc(Cl)cc(NC(=O)OCc3ccccc3)c2)CCO1`: the IC50 in assay [1] is > 100 µM; in assay [2] it was > 99.5 µM.

Turning to `C=CC[C@H]1NCc2cc(NC(=O)c3cc(Cl)cc4[nH]ncc34)ccc21`, the IC50 in assay [1] is > 100 µM; in assay [2], > 99.5 µM.

As to `O=C(Nc1ccc2c(c1)CNC2)c1cccc2[nH]c(=O)[nH]c12`, the IC50 in assay [1] is 65.3 µM; in assay [2], > 99.5 µM.

In the case of `Cc1c(C(=O)Nc2cc(CCCN)ccn2)cnn1C1CC1`, the IC50 was > 100 µM in assay [1] and > 99.5 µM in assay [2].

Consider `N[C@H]1CC[C@H](c2ccc(NC(=O)c3cc(Cl)cc4[nH]ncc34)cc2)C1`, for which the IC50 in assay [1] was > 100 µM; in assay [2], > 99.5 µM.

Regarding `O=C(Nc1cc(Cl)cc(C(=O)Nc2ccc(C3CCNCC3)cc2)c1)OCc1ccccc1`, the IC50 in assay [1] is 41.3 µM; in assay [2], 15.7 µM and 21.1 µM.

Turning to `NCc1cccc(NC(=O)[C@@H](NC(=O)OCc2ccccc2)C2CCN(S(=O)(=O)C3CCCC3)CC2)c1`, the results for the IC50 in assay [1] and in assay [2] were > 100 µM and > 99.5 µM, respectively.

Turning to `CCc1cc(C(=O)Nc2cccc(CN)c2)sc1-c1ccc(Cl)cc1`, the IC50 was > 100 µM in assay [1]; 19.7 µM and 24.8 µM in assay [2].

For the compound `NCc1cc(C(=O)N2CCOCC2)cc([C@@H]2C[C@H]2c2cc(Cl)cc(NC(=O)OCc3ccccc3)c2)c1`, the results for the IC50 in assay [1] and in assay [2] were > 100 µM and 44.5 µM, respectively.

With `O=C(Nc1cc([C@H]2CCOC2)ccn1)c1cc(F)c2[nH]ccc2c1`, the IC50 in assay [1] is > 100 µM; in assay [2], > 99.5 µM.

For `Cc1c(CN)cccc1NC(=O)c1cc(Cl)cc(NC(=O)OCc2ccccc2)c1`, the results for the IC50 in assay [1] and in assay [2] were > 100 µM and > 99.5 µM, respectively.

Consider `O=C(Nc1cc(Cl)cc(C(=O)Nc2ccnc(OC3CNC3)c2)c1)OCc1ccccc1`, for which the values for the IC50 in assay [1] and in assay [2] were > 100 µM and > 99.5 µM, respectively.

On to `NCc1ccc(NC(=O)c2cc(Cl)cc3[nH]ncc23)cc1F`, for which the IC50 was > 100 µM in assay [1] and > 99.5 µM in assay [2].

With `Nc1cccc(NC(=O)c2cc(Cl)cc(NC(=O)OCc3ccccc3)c2)c1`, the IC50 in assay [1] is > 100 µM; in assay [2], > 99.5 µM.

In the case of `O=C(Nc1cc(Cl)cc(-c2cccc3c(C(=O)O)cccc23)c1)OCc1ccccc1`, the values for the IC50 in assay [1] and in assay [2] were 7.51 µM and 9.78 µM, respectively.

As to `COC(=O)[C@H]1NCc2cc(NC(=O)c3cc(F)cc4[nH]ncc34)ccc21`, the IC50 was > 100 µM in assay [1] and > 99.5 µM in assay [2].

Consider `NCc1cccc(NC(=O)[C@@H](NC(=O)OCc2ccccc2)C2CCN(C(=O)c3cscn3)CC2)c1`, for which the IC50 in assay [1] is > 100 µM; in assay [2], > 99.5 µM.

Consider `NCc1cccc(NC(=O)[C@H]2CC(=O)Nc3ccc(Br)cc32)c1`, for which the IC50 is > 100 µM in assay [1] and > 99.5 µM in assay [2].

As for `CC(C)(O)c1cncc(NC(=O)c2cccc3c2CC(=O)N3)c1`, the IC50 is > 100 µM in assay [1] and > 99.5 µM in assay [2].

As to `COc1cc(C(=O)Nc2ccc3c(c2)CNC3)cc2cnn(C)c12`, the IC50 in assay [1] is > 100 µM; in assay [2] it was > 99.5 µM.

Take `O=C(Nc1cc(Cl)cc(C(=O)Nc2ccc3c(c2)OCO3)c1)OCc1ccccc1`: the results for the IC50 in assay [1] and in assay [2] were > 100 µM and > 99.5 µM, respectively.

As to `CN1C(=O)CC[C@H]1c1nc2c(C(=O)Nc3ccc4c(c3)CNC4)cc(F)cc2[nH]1`, the IC50 in assay [1] was > 100 µM; in assay [2] it was > 99.5 µM.

With `O=C(Nc1cc(Cl)cc(C(=O)Nc2ccc3c(c2)[C@H]2CC[C@H]3N2)c1)OCc1ccccc1`, the IC50 in assay [1] was > 100 µM; in assay [2], 76.4 µM.

Consider `CNCc1ccc(NC(=O)c2cc(Cl)cc3[nH]ncc23)cc1`, for which the IC50 in assay [1] is > 100 µM; in assay [2], > 99.5 µM.

Turning to `NCCc1csc2cc(C(=O)Nc3ccc4c(c3)CNC4)ccc12`, the values for the IC50 in assay [1] and in assay [2] were > 100 µM and > 99.5 µM, respectively.

With `CC(C)[C@H](CC(=O)O)NC(=O)c1cc(Cl)cc(NC(=O)OCc2ccccc2)c1`, the IC50 was > 100 µM in assay [1] and > 99.5 µM in assay [2].

For `O=C1Cc2c(cccc2C(=O)N[C@H]2CCC23CCOCC3)N1`, the IC50 in assay [1] is > 100 µM; in assay [2], > 99.5 µM.

In the case of `NCCNS(=O)(=O)c1ccc(NC(=O)c2cc(Cl)cc(NC(=O)OCc3ccccc3)c2)cc1`, the IC50 in assay [1] was > 100 µM; in assay [2], 33.6 µM.

As to `O=C(Nc1ccc2c(c1)CNC2)c1cc(Cl)cc(N2CCCC2=O)c1`, the 50% inhibitory concentration (IC50) in assay [1] is > 100 µM; in assay [2], > 99.5 µM.

On to `O=C(Nc1cc(Cl)cc(C(=O)Nc2ccc(CCN3CCOCC3)cc2)c1)OCc1ccccc1`, for which the IC50 was > 100 µM in assay [1] and > 99.5 µM in assay [2].

As to `CCC1CN(C(=O)Cn2ccnc(N3CC[C@@H](CO)C3)c2=O)C1`, the IC50 in assay [1] is > 100 µM; in assay [2], > 99.5 µM.

Turning to `O=C(Nc1ccc2c(c1)CNC2)c1cc(F)cc2[nH]c(-c3ccc(F)cc3)nc12`, the IC50 was 9.17 µM and 43.9 µM in assay [1]; 4.84 µM and 4.4 µM in assay [2].

Consider `NC1CN(c2ccc(NS(=O)(=O)c3ccc(Oc4ccccc4Cl)cc3)cn2)C1`, for which the IC50 is > 100 µM in assay [1] and > 99.5 µM in assay [2].

With `CN1CCC(COc2cccc([C@H](NC(=O)OCc3ccccc3)C(=O)Nc3cccc(CN)c3)c2)CC1`, the IC50 is > 100 µM in assay [1] and > 99.5 µM in assay [2].

`O=C1Nc2ccccc2[C@H]1N1CCC(c2nc3ccccc3s2)CC1`: the IC50 in assay [1] was > 100 µM; in assay [2], > 99.5 µM.

For `O=C(Nc1cc(Cl)cc(C(=O)Nc2ccc(N3CCNCC3)c(F)c2)c1)OCc1ccccc1`, the IC50 was > 100 µM in assay [1] and 74.1 µM in assay [2].

As for `CC(C)c1nc2cc(Cl)ccc2n1Cc1ccc(-c2nn[nH]n2)cc1`, the IC50 in assay [1] is > 100 µM; in assay [2], > 99.5 µM.

On to `O=C(Nc1cc(Cl)cc(C(=O)Nc2cccc(-n3nn[nH]c3=O)c2)c1)OCc1ccccc1`, for which the IC50 is 8.66 µM and 9.23 µM in assay [1]; 11 µM and 11.4 µM in assay [2].

Turning to `O=C(Nc1ccc2c(c1)CNC2)c1cccc2ccncc12`, the IC50 in assay [1] was > 100 µM; in assay [2], > 99.5 µM.

With `O=S(=O)(Nc1cccc(-c2nnn[nH]2)c1)c1cc(F)cc(Cl)c1`, the IC50 in assay [1] was > 100 µM; in assay [2], > 99.5 µM.

Take `O=C1Cc2c(cccc2C(=O)NC2CC3(CCOCC3)C2)N1`: the IC50 in assay [1] is > 100 µM; in assay [2], > 99.5 µM.

As to `Cn1ncc2c(C(=O)Nc3ccc4c(c3)CNC4)cc(Cl)cc21`, the results for the IC50 in assay [1] and in assay [2] were > 100 µM and > 99.5 µM, respectively.

For `NCCC1(C(=O)Nc2ccc3c(c2)C(=O)OC3)CCCC1`, the values for the IC50 in assay [1] and in assay [2] were > 100 µM and > 99.5 µM, respectively.

For `CC(C)c1noc2nc(C3CC3)cc(C(=O)Nc3cccc(CN)c3)c12`, the IC50 in assay [1] is > 100 µM; in assay [2], > 99.5 µM.

Regarding `NCc1cccc(NC(=O)c2cc(Cl)ccc2OCC(F)(F)F)c1`, the IC50 was > 100 µM in assay [1] and > 99.5 µM in assay [2].

In the case of `CC(C)(C)OC(=O)Cc1cc(CN)cc(NC(=O)c2cc(Cl)cc(NC(=O)OCc3ccccc3)c2)c1`, the IC50 in assay [1] was > 100 µM; in assay [2], > 99.5 µM.

`Clc1cc([C@@H]2C[C@H]2c2cccc(C3CCNCC3)c2)c2cn[nH]c2c1`: the IC50 in assay [1] is 9.27 µM and 13.3 µM; in assay [2], 7.93 µM and 6.82 µM and 6.33 µM.

Consider `O=C(Nc1ccc2c(c1)CNC2)c1ccc2ncsc2n1`, for which the IC50 was > 100 µM in assay [1] and > 99.5 µM in assay [2].

Turning to `O=C(Nc1ccc2c(c1)CNC2)c1ccncc1`, the IC50 was > 100 µM in assay [1] and > 99.5 µM in assay [2].

On to `CC(C)(C)c1nc2c(C(=O)Nc3ccc4c(c3)CNC4)cc(Br)cc2[nH]1`, for which the results for the IC50 in assay [1] and in assay [2] were > 100 µM and 39 µM, respectively.

In the case of `NC1CCN(c2ccc(NC(=O)c3cc(Cl)cc(NC(=O)OCc4ccccc4)c3)cc2)CC1`, the IC50 is > 100 µM in assay [1] and 39.7 µM in assay [2].

For `O=C(Nc1ccc2c(c1)CNC2)c1cc(Br)cc2c1nc1n2CCCC1`, the IC50 in assay [1] was 47.5 µM and 35.2 µM; in assay [2], 23.8 µM.

As for `NC1(c2cc(C(F)(F)F)ccc2NS(=O)(=O)c2ccc(Oc3ccccc3Cl)cc2)CC1`, the figures for the IC50 in assay [1] and in assay [2] were > 100 µM and > 99.5 µM, respectively.

With `O=C1Cc2c(cccc2C(=O)Nc2ccc(O[C@H]3CCOC3)nc2)N1`, the results for the IC50 in assay [1] and in assay [2] were > 100 µM and > 99.5 µM, respectively.

Consider `N[C@H](CO)c1cccc(NC(=O)c2cc(Cl)cc(NC(=O)OCc3ccccc3)c2)c1`, for which the figures for the IC50 in assay [1] and in assay [2] were > 100 µM and > 99.5 µM, respectively.

With `NCc1cccc(NC(=O)Cc2cccc(Oc3ccncc3Br)c2)c1`, the results for the IC50 in assay [1] and in assay [2] were > 100 µM and > 99.5 µM, respectively.

As for `O=C(Nc1ccc2c(c1)CNC2)c1cc(Br)cc2[nH]c([C@H]3CCCO3)nc12`, the IC50 in assay [1] is > 100 µM; in assay [2], > 99.5 µM.

On to `CS(=O)(=O)c1cc2c(cc1NC(=O)c1cc(F)cc3[nH]ncc13)CNC2`, for which the figures for the IC50 in assay [1] and in assay [2] were > 100 µM and > 99.5 µM, respectively.

Consider `NCc1cccc(NC(=O)[C@H](NC(=O)OCc2ccccc2)C2CCN(C(=O)Cn3ccnc3)CC2)c1`, for which the IC50 is > 100 µM in assay [1] and > 99.5 µM in assay [2].
